The values below come from patent publication US20090270373A1, “TREATMENT OF DOWN SYNDROM WITH BENZODIAZEPINE RECEPTOR ANTAGONISTS” (Cypress Biosciences, Inc., priority 2008, published 2009).

Structures are written as SMILES.

For data set [1] the following is noted: of the intravenous bioavailability; cited from earlier work.
The subject of data set [2] is Down Syndrome patients. The data set is described as follows: Cognition in Down Syndrome patients, double-blind cross-over (Example 3). Format: in vivo, human. To be noted: 5 and 20 mg. Here is the method:
Fifteen adult or adolescent Down Syndrome patients experiencing at least some level of cognitive impairment participate in a double-blind, cross-over comparison of […]. The drugs administered are flumazenil (5 and 20 mg), bretazenil (5 and 20 mg) or placebo. Subjects are randomly assigned to treatments according to a Williams Square design (Higgitt, supra (citing Williams, “Experimental designs balanced for the estimation of residual effects of treatments, Aust. J. Sci. Res. 2:149-168 (1949))). Each subject receives a different sequence of four treatments balanced for carry-over effects and separated by at least 1 week of wash-out period. […]
Psychophysiological indices to be measured include: EEG, skin conductance, finger tremor, critical flicker fusion threshold, blood pressure and pulse rate, key tapping rate, and reaction time. […]
EEG and evoked responses: These are recorded during the same EEG recording procedure. […] In addition, the four values are summed and each is expressed as a percentage of the total.
The averaged evoked responses are obtained from the 500 ms epoch of the EEG following each of the 32 click stimuli. […] The latency at each peak and peak-to-peak amplitudes are computed and recorded automatically. […]
Skin conductance, blood pressure and pulse rate can be measured by the method of Higgitt et al., supra. […]

On to `CCOC(=O)c1ncn2c1CN(C)C(=O)c1cc(F)ccc1-2` [flumazenil, 8-fluoro-5,6-dihydro-5-methyl-6-oxo-4H-imidazo[1,5-a]benzodiazepine-3-carboxylic acid ethyl ester], for which the oral bioavailability result in data set [1] is on record as “approximately 20%”. For the same compound, the “indicators of cognition as compared to placebo” value in data set [2] is “improvement in one or more indicators of cognition”.
